From patent publication US5545615A, “A method of inhibiting fertilization by alpha-1-antitrypsin or antithrombin III” (ZymoGenetics, Inc., priority 1994, dated 1996)

What was measured:
[1] = system: fertilization in vitro; settings: cited from earlier work
[2] = system: acrosin; settings: cited from earlier work
[3] = system: female mice; assay: In vivo inhibition of fertilization, intravaginal cream in female mice; set-up: species or system mouse; settings: individual mice 1-5; cream 100 mg AAT/20 ml, 100 μl intravaginal prior to copulation; sacrificed 12 days after copulation
Method: For in vivo testing, a cream was prepared by dissolving 100 mg of recombinant AAT in 5 ml of phosphate-buffered saline (PBS; obtained from Sigma Chemical Co.). This solution was emulsified with 15 ml of K-Y Jelly (Johnson & Johnson) to give a final AAT concentration of 100 mg/20 ml.
The cream (100 μl) was administered intravaginal to female mice using an Eppendorf pipette prior to copulation. Control females were untreated or received a control cream consisting of 100 mg bovine serum albumin in 5 ml of PBS plus 15 ml of K-Y Jelly. Copulation was confirmed in two of five BSA controls and four of five experimental mice. Mice were sacrificed 12 days after copulation and the number of fetuses was noted. Results, shown in Table 1, indicate that alpha-1-antitrypsin is an effective contraceptive agent.

[4] = system: human acrosin; settings: cited from earlier work
[5] = system: boar acrosin; settings: cited from earlier work
[6] = system: sperm and ova of hybrid mouse strain B6D2F1; assay: In vitro fertilization assay with mouse sperm and oocytes; format: cell-based
Method: The ability of AAT to inhibit fertilization in vitro was tested using sperm and ova obtained from the hybrid mouse strain B6D2F1. This strain was chosen because a 75% to 85% in vitro fertilization rate is routine and the female mice respond well to superovulatory drugs, producing an average of 30 normal oocytes per animal.
Oocytes were collected from 3- to 4-week-old female B6D2F1 mice. The animals received 5 international units of pregnant mare's serum gonadotropin to initiate follicular growth. After 48 hours, 5 international units of human chorionic gonadotropin were given to effect ovulation. Twelve hours after the last injection, oviducts were removed and oocytes were collected by puncture of the ampullary region, allowing the release of cumulus enclosed oocytes (cumulus clots) into 0.2 ml Fraser's medium (Fraser and Drury, Biol. Reprod. 13: 513-518, 1975) under paraffin oil. To randomize oocyte distribution, all cumulus clots were collected into one dish of medium and then placed into the fertilization medium. Oocytes were collected, on average, 15 minutes before sperm addition.
Sperm were collected from the cauda epididymus of 9- to 14-week-old male B6D2F1 mice of proven fertility. Each epididymus contained approximately 40 million sperm with 70% to 80% motility. […]
After the one-hour capacitation period, the sperm were counted by hemocytometer and […] sperm cells/ml were added to 0.2 ml Fraser's, medium (free of alpha-1-antitrypsin or containing AAT at the above concentrations) containing cumulus cell-enclosed oocytes. […]
The above experiments were designed to analyze the effective inhibitory concentration of alpha-1-antitrypsin and to detect differences in fertilization rate resulting from the capacitation/acrosome reaction state of the sperm. […] Data are expressed as percent oocytes with two pronuclei and a second polar body. […]

[7] = system: boar acrosin; assay: Spectrophotometric acrosin assay with substrate BAEE; format: biochemical
Method: The effects of alpha-1-antitrypsin on purified acrosin were measured spectrophotometrically using the acrosin substrate N-α-benzoyl-L-arginine ethyl ester (BAEE) essentially as described by Polakoski and Zaneveld (Methods in Enzymology 45 (part B): 325, 1976). Boar acrosin was combined with AAT in 0.025M Tris, pH 7.0, containing BAEE. A control sample lacked AAT. The absorbance of the reaction mixture was monitored at 253 nm.
(§1) The nature of the reaction between AAT and acrosin was examined by electrophoresis under reducing and denaturing conditions and by Western blot analysis. AAT (2 μg) and activated boar proacrosin (5 μg) were incubated in a buffer containing 0.1M Tris, pH 8.0. Acrosin activity was inhibited 48% in the BAEE assay. […] Thus, all inhibition is accounted for by the formation of a covalent complex.

[8] = system: boar acrosin; assay: SDS-PAGE / Western blot analysis of AAT-acrosin reaction mixture; format: binding
Method: Lanes 1 and 6, proacrosin (^~ 5 ug) autoactivated to acrosin; Lanes 2 and 7, alpha-1-antrypsin (^~ 2 ug); Lanes 3 and 8, alpha-1-antitrypsin (~2 ug)+activated proacrosin (~5 ug) in 0.1M Tris, pH 8.0; Lanes 4 and 9, alpha-1-antitrypsin (^~ 2 ug)+activated proacrosin (^~ 5 ug) in 0.1M Tris, 0.05M CaCl2, pH 8.0; Lane 5, molecular weight markers.
as §1

Substance | effect on fertilization in vitro [1] | effect on acrosin activity [2] | Number of Fetuses [3] | inhibition of human acrosin in vitro [4] | inhibition of boar acrosin in vitro [5] | blocking of fertilization ([6]; AAT in both capacitation and fertilization media, all concentrations except 0.01 mM (0.05-1 mM), FIG. 4) | concentrations of AAT effective in blocking fertilization ([6]; capacitation in AAT-containing medium, fertilization in control medium, FIG. 3) | decrease of fertilization rate (percent oocytes with two pronuclei and a second polar body) ([6]; sperm capacitated in control medium, fertilization in AAT-containing medium, all concentrations tested (0.01-1 mM), control fertilization rate 77%, FIG. 2) | Acrosin activity inhibited in the BAEE assay ([7]; AAT 2 μg + activated boar proacrosin 5 μg, 0.1M Tris, pH 8.0) | inhibition of acrosin in the test system (BAEE hydrolysis, absorbance at 253 nm) ([7]; boar acrosin combined with AAT in 0.025M Tris, pH 7.0, containing BAEE, amount of AAT tested) | complex formation between inhibitor and enzyme (Western blot) ([8]; AAT 2 μg + activated boar proacrosin 5 μg, 0.1M Tris, pH 8.0, reducing and denaturing 12% SDS-PAGE) | complex formation between inhibitor and enzyme (Western blot) ([8]; same analysis in the presence of 0.05M CaCl2)
soybean trypsin inhibitor | prevent fertilization in vitro | block acrosin activity |  |  |  |  |  |  |  |  |  | 
alpha-1-antitrypsin [AAT] |  |  | 0 | inhibit | inhibit | effective in blocking fertilization | greater than 0.2 mM | about 50% | 48% | complete inhibition | formation of a high molecular weight complex | essentially identical results
